Laboratory results published in the NIST ThermoML archive (doi:10.1021/je500053c).
Numbers after ± are expanded uncertainties.

How the values were obtained:
[1] = 101.33 kPa, Liquid, Vibrating tube method
[2] = xn = mol fraction of the nth substance listed; settings: 101 kPa, Liquid, Vibrating tube method

CCCCCC[n+]1ccn(C)c1.O=S(=O)([N-]S(=O)(=O)C(F)(F)F)C(F)(F)F
[1]
Settings | mass density [kg/m3]
288.15 K | 1381.4 ± 0.6
298.15 K | 1372 ± 0.6
308.15 K | 1362.7 ± 0.5
318.15 K | 1353.5 ± 0.5

CCCCn1cc[n+](C)c1.CS(=O)(=O)[O-] [1-butyl-3-methylimidazolium methanesulfonate] + O
mass density [kg/m3], [2]
Settings | x1 = 0.025 | x1 = 0.05 | x1 = 0.075 | x1 = 0.1 | x1 = 0.148 | x1 = 0.199 | x1 = 0.251 | x1 = 0.298 | x1 = 0.346 | x1 = 0.441
298.15 K | 1038.1 ± 2.9 | 1068.4 ± 2.1 | 1089.3 ± 1.5 | 1104.5 ± 1 | 1123.9 ± 0.7 | 1137.1 ± 0.5 | 1145.7 ± 0.4 | 1151.3 ± 0.3 | 1154.9 ± 0.3 | 1160.6 ± 0.3
313.15 K | 1031.2 ± 2.7 | 1059.7 ± 2 | 1079.7 ± 1.4 | 1093.5 ± 0.9 | 1113.6 ± 0.7 | 1126.8 ± 0.5 | 1135.5 ± 0.4 | 1141.2 ± 0.3 | 1144.8 ± 0.3 | 1150.6 ± 0.3
323.15 K | 1025.9 ± 2.6 | 1053.6 ± 1.9 | 1073.1 ± 1.4 | 1087.6 ± 0.9 | 1106.6 ± 0.7 | 1119.9 ± 0.5 | 1128.6 ± 0.4 | 1134.4 ± 0.3 | 1138.1 ± 0.3 | 1144 ± 0.3
333.15 K | 1020.1 ± 2.6 | 1047.1 ± 1.9 | 1066.2 ± 1.4 | 1080.5 ± 0.9 | 1099.5 ± 0.7 | 1112.9 ± 0.5 | 1121.7 ± 0.4 | 1127.6 ± 0.3 | 1131.4 ± 0.3 | 1137.3 ± 0.3
343.15 K | 1013.9 ± 2.5 | 1040.3 ± 1.8 | 1059.2 ± 1.3 | 1073.3 ± 0.9 | 1092.3 ± 0.7 | 1105.7 ± 0.5 | 1114.7 ± 0.4 | 1120.7 ± 0.3 | 1124.6 ± 0.3 | 1130.7 ± 0.3
358.15 K | 1003.9 ± 2.5 | 1029.7 ± 1.8 | 1048.2 ± 1.3 | 1062.3 ± 0.9 | 1081.2 ± 0.7 | 1094.9 ± 0.5 | 1104.1 ± 0.4 | 1110.3 ± 0.3 | 1114.4 ± 0.3 | 1120.7 ± 0.3

O [water] + CCCCn1cc[n+](C)c1.CS(=O)(=O)[O-]
[2], x2 = 0
Settings | mass density [kg/m3]
333.15 K | 983.2 ± 0.2
343.15 K | 977.8 ± 0.2
358.15 K | 968.3 ± 0.2
